This is an account of results in patent US10689399B2, “Substituted 3,4,5,6,8,10,14,14a-octahydro-2h-2,6-methanopyrido[1′,2′:4,5]pyrazino[2,1-b][1,3]oxazocines and methods for treating viral infections” (Gilead Sciences, Inc., priority 2012, dated 2020).

The first test has as its system HIV-IIIb. Description: Antiviral assay in MT4 cells. The format is cell-based. Conditions: Human immunodeficiency virus 1, IIIB, MT4, 120 h, MT4 cells infected with HIV-IIIb, 5 days, CellTiter-Glo; read-out: EC50 nM in MT-4. The method, then: For the antiviral assay utilizing MT4 cells, 0.4 μL of 189X test concentration of 3-fold serially diluted compound in DMSO was added to 40 μL of cell growth medium (RPMI 1640, 10% FBS, 1% penicilline/Streptomycine, 1% L-Glutamine, 1% HEPES) in each well of 384-well assay plates (10 concentrations) in quidruplicate.
1 mL aliquots of 2×10^6 MT4 cells are pre-infected for 1 and 3 hours respectively at 37° C. with 25 μL (MT4) or of either cell growth medium (mock-infected) or a fresh 1:250 dilution of an HIV-IIIb concentrated ABI stock (0.004 m.o.i. for MT4 cells). Infected and uninfected cells are diluted in cell growth medium and 35 μL of 2000 (for MT4) cells is added to each well of the assay plates.
Assay plates were then incubated in a 37° C. incubator. After 5 days of incubation, 25 μL of 2× concentrated CellTiter-Glo™ Reagent (catalog # G7573, Promega Biosciences, Inc., Madison, Wis.) was added to each well of the assay plate. Cell lysis was carried out by incubating at room temperature for 2-3 minutes, and then chemiluminescence was read using the Envision reader (PerkinElmer).
(In general: ATP-based viability assays read luminescence as a measure of living cells.)
`O=C(NCc1c(F)cc(F)cc1F)c1cn2c(c(O)c1=O)C(=O)N1[C@H](C2)[C@H]2C[C@@H]1C(F)(F)C2` [Compound 83, (1S,4R,12aS)-3,3-di fluoro-7-hydroxy-6,8-dioxo-N-(2,4,6-trifluorobenzyl)-1,2,3,4,6,8,12,12a-octahydro-1,4-methanodipyrido[1,2-a:1′,2′-d]pyrazine-9-carboxamide]: the EC50 came out at 1.9 nM.
On to `O=C(N[C@@H](c1ccc(F)cc1F)C(F)(F)F)c1cn2c(c(O)c1=O)C(=O)N1C(C2)O[C@H]2CC[C@@H]1C2` (stereo partly drawn) [Compound 36, (2S,5R)—N—((S)-1-(2,4-difluorophenyl)-2,2,2-trifluoroethyl)-8-hydroxy-7,9-dioxo-2,3,4,5,7,9,13,13a-octahydro-2,5-methanopyrido[1′,2′:4,5]pyrazino[2,1-b][1,3]oxazepine-10-carboxamide], for which the EC50 worked out at 7.6 nM.
Still for that read-out and setting: under `O=C(NCc1c(F)ccc(Cl)c1F)c1cn2c(c(O)c1=O)C(=O)N1[C@H]3CC[C@H](C3)[C@@H]1C2` [Compound 73, (1R,4S,12aR)—N-(3-chloro-2,6-difluorobenzyl)-7-hydroxy-6,8-dioxo-1,2,3,4,6,8,12,12a-octahydro-1,4-methanodipyrido[1,2-a:1′,2′-d]pyrazine-9-carboxamide] stands 1.8 nM; under `O=C(NCc1ccc(F)cc1F)c1cn2c(c(O)c1=O)C(=O)N1C(C2)[N@]2CC[C@H]1C2` (stereo partly drawn) [Compound 6, (1R,4S)—N-(2,4-difluorobenzyl)-7-hydroxy-6,8-dioxo-3,4,6,8,12,12a-hexahydro-2H-1,4-methanopyrido[1′,2′:4,5]pyrazino[1,2-a]pyrimidine-9-carboxamide], 5.3 nM; under `O=C(NCc1ncc(F)cc1F)c1cn2c(c(O)c1=O)C(=O)N1[C@H]3CC[C@H](C3)[C@@H]1C2` [Compound 76, (1R,4S,12aR)—N-((3,5-difluoropyridin-2-yl)methyl)-7-hydroxy-6,8-dioxo-1,2,3,4,6,8,12,12a-octahydro-1,4-methanodipyrido[1,2-a:1′,2′-d]pyrazine-9-carboxamide], 17.8 nM.
The same measure, in the same setting: to `O=C(NCc1ccc(F)cc1F)c1cn2c(c(O)c1=O)C(=O)N1[C@@H]3CC[C@@H](C3)O[C@H]1C2` (racemic) [Compound 1, N-(2,4-difluorobenzyl)-8-hydroxy-7,9-dioxo-2,3,4,5,7,9,13,13a-octahydro-2,5-methanopyrido[1′,2′:4,5]pyrazino[2,1-b][1,3]oxazepine-10-carboxamide] belongs 2.6 nM; to `O=C(NCc1ccc(F)cc1F)c1cn2c(c(O)c1=O)C(=O)N1C(C2)[N@]2CCC[C@H]1C2` (stereo partly drawn) [Compound 19, (1R,5S)—N-(2,4-difluorobenzyl)-8-hydroxy-7,9-dioxo-2,3,4,5,7,9,13,13a-octahydro-1,5-methanopyrido[1′,2′:4,5]pyrazino[1,2-a][1,3]diazepine-10-carboxamide], 2.8 nM.
Still for that read-out and setting: to `O=C(NCc1c(F)cc(F)cc1F)c1cn2c(c(O)c1=O)C(=O)N1[C@H]3CC(F)C(C3)[C@@H]1C2` (stereo in doubt) [Compound 56, (1R,2S,4R,12aR)-2-fluoro-7-hydroxy-6,8-dioxo-N-(2,4,6-trifluorobenzyl)-1,2,3,4,6,8,12,12a-octahydro-1,4-methanodipyrido[1,2-a:1′,2′-d]pyrazine-9-carboxamide] belongs 3.1 nM.
Regarding `O=C(NCc1cccc(Cl)c1F)c1cn2c(c(O)c1=O)C(=O)N1[C@H]3CC[C@H](C3)O[C@@H]1C2` [Compound 88, (2R,5S,13aR)—N-(3-chloro-2-fluorobenzyl)-8-hydroxy-7,9-dioxo-2,3,4,5,7,9,13,13a-octahydro-2,5-methanopyrido[1′,2′:4,5]pyrazino[2,1-b][1,3]oxazepine-10-carboxamide], the EC50 is 2.9 nM.
Turning to `C[C@@H](NC(=O)c1cn2c(c(O)c1=O)C(=O)N1[C@@H]3CC[C@@H](C3)O[C@H]1C2)c1ccc(F)cc1` [Compound 9, (2S,5R,13aS)—N—((R)-1-(4-fluorophenyl)ethyl)-8-hydroxy-7,9-dioxo-2,3,4,5,7,9,13,13a-octahydro-2,5-methanopyrido[1′,2′:4,5]pyrazino[2,1-b][1,3]oxazepine-10-carboxamide], the EC50 came out at 5.1 nM.
Take `C[C@@H]1C[C@H]2C[C@@H]1[C@@H]1Cn3cc(C(=O)NCc4c(F)cc(F)cc4F)c(=O)c(O)c3C(=O)N21` [Compound 84, (1S,2R,4 S,12aR)-7-hydroxy-2-methyl-6,8-dioxo-N-(2,4,6-trifluorobenzyl)-1,2,3,4,6,8,12,12a-octahydro-1,4-methanodipyrido[1,2-a:1′,2′-d]pyrazine-9-carboxamide]: the EC50 is 2.9 nM.
On the same count and under the same terms, under `O=C(NCc1cccc(Cl)c1Cl)c1cn2c(c(O)c1=O)C(=O)N1[C@H]3CC[C@H](C3)[C@@H]1C2` [Compound 60, (1R,4S,12aR)—N-(2,3-dichlorobenzyl)-7-hydroxy-6,8-dioxo-1,2,3,4,6,8,12,12a-octahydro-1,4-methanodipyrido[1,2-a:1′,2′-d]pyrazine-9-carboxamide] stands 2.1 nM.
Still for that read-out and setting: under `C[C@@H](NC(=O)c1cn2c(c(O)c1=O)C(=O)N1[C@H]3CC[C@H](C3)O[C@@H]1C2)c1ccc(F)cc1` [Compound 10, (2R,5S,13aR)—N—((R)-1-(4-fluorophenyl)ethyl)-8-hydroxy-7,9-dioxo-2,3,4,5,7,9,13,13a-octahydro-2,5-methanopyrido[1%2′: 4,5]pyrazino[2,1-b][1,3]oxazepine-10-carboxamide] stands 6.1 nM.
Still for that read-out and setting: under `O=C(NC1(c2ccc(F)cc2F)CCCC1)c1cn2c(c(O)c1=O)C(=O)N1C(C2)O[C@H]2CC[C@@H]1C2` (stereo partly drawn) [Compound 33, (2S,5R)—N-(1-(2,4-difluorophenyl)cyclopentyl)-8-hydroxy-7,9-dioxo-2,3,4,5,7,9,13,13a-octahydro-2,5-methanopyrido[1%2′: 4,5]pyrazino[2,1-b][1,3]oxazepine-10-carboxamide] stands 43.5 nM; under `C[C@@H](NC(=O)c1cn2c(c(O)c1=O)C(=O)N1[C@@H]3CC[C@H](C3)O[C@@H]1C2)c1c(F)cc(F)cc1F` [Compound 78, (2R,13aR)-8-hydroxy-7,9-dioxo-N—((R)-1-(2,4,6-trifluorophenyl)ethyl)-2,3,4,5,7,9,13,13a-octahydro-2,5-methanopyrido[1%2′: 4,5]pyrazino[2,1-b][1,3]oxazepine-10-carboxamide], 5.6 nM; under `O=C(NCc1c(F)cc(F)cc1F)c1cn2c(c(O)c1=O)C(=O)N1[C@@H]3C[C@@H]([C@H](F)C3)[C@@H]1C2` [Compound 59, (1R,2R,4R,12aR)-2-fluoro-7-hydroxy-6,8-dioxo-N-(2,4,6-trifluorobenzyl)-1,2,3,4,6,8,12,12a-octahydro-1,4-methanodipyrido[1,2-a:1′,2′-d]pyrazine-9-carboxamide], 3.1 nM.
Take `O=C(NCc1ccc(F)cc1F)c1cn2c(c(O)c1=O)C(=O)N1C(C2)O[C@@H]2CCC[C@H]1C2` (stereo partly drawn) [Compound 8, (2R,6S)—N-(2,4-difluorobenzyl)-9-hydroxy-8,10-dioxo-3,4,5,6,8,10,14,14a-octahydro-2H-2,6-methanopyrido[1′,2′:4,5]pyrazino[2,1-b][1,3]oxazocine-11-carboxamide]: the EC50 is 2.5 nM.
The same measure, in the same setting: under `O=C(NCc1ccc(F)c(Cl)c1)c1cn2c(c(O)c1=O)C(=O)N1[C@H]3CC[C@H](C3)[C@@H]1C2` [Compound 75, (1R,4S,12aR)—N-(3-chloro-4-fluorobenzyl)-7-hydroxy-6,8-dioxo-1,2,3,4,6,8,12,12a-octahydro-1,4-methanodipyrido[1,2-a:1′,2′-d]pyrazine-9-carboxamide] stands 2.8 nM.
On the same count and under the same terms, to `O=C(NCc1c(F)cc(F)cc1F)c1cn2c(c(O)c1=O)C(=O)N1[C@@H]3C[C@@H](C[C@H]3F)[C@@H]1C2` [Compound 82, (1S,3R,4R,12aR)-3-fluoro-7-hydroxy-6,8-dioxo-N-(2,4,6-trifluorobenzyl)-1,2,3,4,6,8,12,12a-octahydro-1,4-methanodipyrido[1,2-a:1′,2′-d]pyrazine-9-carboxamide] belongs 2.9 nM; to `C[C@H](NC(=O)c1cn2c(c(O)c1=O)C(=O)N1[C@@H]3CC[C@@H](C3)O[C@H]1C2)c1ccc(F)cc1` [Compound 21, (2S,5R,13aS)—N—((S)-1-(4-fluorophenyl)ethyl)-8-hydroxy-7,9-dioxo-2,3,4,5,7,9,13,13a-octahydro-2,5-methanopyrido[1′,2′:4,5]pyrazino[2,1-b][1,3]oxazepine-10-carboxamide], 38.3 nM.
The same measure, in the same setting: under `O=C(NCc1ccc(F)cc1F)c1cn2c(c(O)c1=O)C(=O)N1[C@@H]3CC[C@@H](C3)O[C@H]1C2` [Compound 3, (2S,5R,13aS)—N-(2,4-difluorobenzyl)-8-hydroxy-7,9-dioxo-2,3,4,5,7,9,13,13a-octahydro-2,5-methanopyrido[1′,2′:4,5]pyrazino[2,1-b][1,3]oxazepine-10-carboxamide] stands 2 nM.

The same test, now with this note: Human immunodeficiency virus 1, IIIB, MT4, 120 h, read-out: EC50 nM in MT-4, MT4 cells infected with HIV-IIIb, 5 days, CellTiter-Glo.
Consider `C[C@H]1C[C@@H]2C[C@H]1O[C@H]1Cn3cc(C(=O)NCc4ccc(F)cc4F)c(=O)c(O)c3C(=O)N21` [Compound 39, (2R,3S,5R,13aS)—N-(2,4-difluorobenzyl)-8-hydroxy-3-methyl-7,9-dioxo-2,3,4,5,7,9,13,13a-octahydro-2,5-methanopyrido[1′,2′:4,5]pyrazino[2,1-b][1,3]oxazepine-10-carboxamide], for which the EC50 was 3.6 nM.

The EC50 is the concentration giving half of the maximal effect.
